Test results from patent US7297818B2, “Adamantane derivatives” (AstraZeneca AB, priority 1999, dated 2007).
Where a name gives a salt, the structure may show the parent alone.

- melting point: 245 to 248 °C
SMILES: COCCNCCCc1ccc(Cl)c(C(=O)NCC23CC4CC(CC(C4)C2)C3)c1 (as salt: hydrochloride) [Example 22, 2-Chloro-5-[3-[(2-methoxyethyl)amino]propyl]-N-(tricyclo[3.3.1.1^3,7]dec-1-ylmethyl)-benzamide, hydrochloride salt]
